Consider one molecule from US9371265B2, “Compositions and methods related to inhibitors of JAK kinase” (EP PHARMA, INC., priority 2012, dated 2016).

The target in one series is KIT (Homo sapiens, UniProt P10721). As to the kind of experiment: Kinase panel: KIT. It counts as biochemical. Particulars: 10 μM EP009. As for the experimental part: (§1) Achieving JAK3 selectivity remains a significant challenge in the development of new small molecules for the treatment of cancer and immune-derived diseases. As such, the inventors employed cell-based screening assays of small-molecule libraries based upon the chemical scaffold of the established JAK3 inhibitor NC1153 (Stepkowski et al., J Immunol. (2005), 175(7):4236-4246) EP009 (FIG. 2A) was selected as a lead compound due to improved intrinsic stability (>95% purity in various solvents at 37° C. for 24 hours; FIG. 3) and high-degree of JAK3 selectivity. To test JAK3 versus JAK2 specificity of EP009, the IL-2/JAK3-dependent Kit225, and IL-3/JAK2-dependent BaF/3 cell lines were used. Kit225 and BaF/3 cells growing in the presence of IL-2 or IL-3, respectively, were treated with ascending concentrations of EP009 for 12 hours and cellular JAK3 and JAK2 tyrosine phosphorylation levels detected by Western blot analysis (FIGS. 2B and 2C). Following densitometric analysis, EP009 was determined to dose-dependently reduce IL-2-mediated JAK3 tyrosine phosphorylation with a cellular 50% inhibitory concentration (IC50) between 10 and 20 μM (FIG. 2B). […] To globally evaluate specificity, the inhibitory activity of EP009 was measured against a panel of protein kinases distributed throughout the kinome using the scanEDGE profiling service (KINOMEscan). […]

Another series has as its system HEPG2. As to the kind of experiment: HEPG2 cell viability (MTS). It counts as cell-based, human. The settings on record: 72 hours, concentrations giving complete loss of JAK3-dependent cell viability (0-10 μM). The procedure:
(§2) FIGS. 2A-2F. Selective inhibition of JAK3 by EP009 results in loss of JAK3-dependent tumor cell line viability with no detectable off-target effects in key cell types. (A) Chemical structure of EP009 (M.W. 224.34). (B) Kit225 or (C) BaF/3 cells cultured in the presence of IL-2 or IL-3, respectively, were treated with vehicle (PBS; lane a) or increasing amounts of EP009 (0-50 μM; lanes b-h) for 12 hours. Cells were then lysed, clarified, and immunoprecipitated (IP) with anti-JAK3 (α-JAK3) or anti-JAK2 (α-JAK2), and subjected to Western blot (WB) analysis with anti-phosphotyrosine (α-pY). Blots were stripped and reprobed with corresponding antibody to verify equivalent protein loading. […] (E) Kit225 or BaF/3 cells were cultured with increasing amounts of EP009 (0-10 μM) for 72 hours and cell viability measured with the MTS tetrazolium salt assay. Values represent mean absorbance (OD490-OD650 nm) normalized to vehicle (PBS) treated control cells, while error bars represent the standard deviation (n=3). (F) HEK293, HEPG2, or naïve primary human PBMCs were cultured with increasing amounts of EP009 (0-10 μM) for 72 hours and cell viability measured with the MTS tetrazolium salt assay. Values represent mean absorbance (OD490-OD650 nm) normalized to vehicle (PBS) treated control cells, while error bars represent the standard deviation (n=3). […]

The target of another series is JNK2 (Homo sapiens, UniProt P45984). As to the kind of experiment: Kinase panel: JNK2. The settings on record: 10 μM EP009. It counts as biochemical. The procedure:
as §1

The target of another series is KIT(D816V) (Homo sapiens, UniProt P10721, D816V). As to the kind of experiment: Kinase panel: KIT(D816V). The settings on record: 10 μM EP009. Format: biochemical. The procedure:
as §1

Another series deals with SRC (Homo sapiens, UniProt P12931). Nature of the series: Kinase panel: SRC. It counts as biochemical. Particulars: 10 μM EP009. The procedure: as §1
A short description of series [1]: LD50 / acute safety, intravenous tail vein injection. Format: in vivo. Particulars: mice, IV bolus. The procedure:
Mice were dosed using EP009 (-P) by intravenous tail vein injection. 25 mice were divided into groups of 5 and given doses of 2.0 mg (group B), 4.0 mg (group C), 6.0 mg (group D), and 8.0 mg (group E) of EP009, along with a placebo control (group A), in a volume of […]. This corresponded to doses of 100, 200, 300, 400 mg/kg, and 0 mg/kg (control). Dosing began at 3:15 p.m., and began with the highest dose group, followed by 6, 4, 2, and the control group. Dosing took around 15 minutes.

The target in another series is JAK3 (Homo sapiens, UniProt P52333). As to the kind of experiment: IL-2-mediated JAK3 tyrosine phosphorylation in Kit225 cells (IP/Western blot, densitometry). Particulars: 12 hours, densitometric analysis, read-out: cellular IC50, IL-2-mediated JAK3 tyrosine phosphorylation. Also noted: cellular JAK3 and JAK2 tyrosine phosphorylation levels detected by Western blot analysis; endogenous in cells; host or cells: Kit225. Format: cell-based. As for the experimental part: as §2
For orientation: In western blotting, separated proteins are transferred to a membrane and probed.

Sequence of KIT (P10721 26-976): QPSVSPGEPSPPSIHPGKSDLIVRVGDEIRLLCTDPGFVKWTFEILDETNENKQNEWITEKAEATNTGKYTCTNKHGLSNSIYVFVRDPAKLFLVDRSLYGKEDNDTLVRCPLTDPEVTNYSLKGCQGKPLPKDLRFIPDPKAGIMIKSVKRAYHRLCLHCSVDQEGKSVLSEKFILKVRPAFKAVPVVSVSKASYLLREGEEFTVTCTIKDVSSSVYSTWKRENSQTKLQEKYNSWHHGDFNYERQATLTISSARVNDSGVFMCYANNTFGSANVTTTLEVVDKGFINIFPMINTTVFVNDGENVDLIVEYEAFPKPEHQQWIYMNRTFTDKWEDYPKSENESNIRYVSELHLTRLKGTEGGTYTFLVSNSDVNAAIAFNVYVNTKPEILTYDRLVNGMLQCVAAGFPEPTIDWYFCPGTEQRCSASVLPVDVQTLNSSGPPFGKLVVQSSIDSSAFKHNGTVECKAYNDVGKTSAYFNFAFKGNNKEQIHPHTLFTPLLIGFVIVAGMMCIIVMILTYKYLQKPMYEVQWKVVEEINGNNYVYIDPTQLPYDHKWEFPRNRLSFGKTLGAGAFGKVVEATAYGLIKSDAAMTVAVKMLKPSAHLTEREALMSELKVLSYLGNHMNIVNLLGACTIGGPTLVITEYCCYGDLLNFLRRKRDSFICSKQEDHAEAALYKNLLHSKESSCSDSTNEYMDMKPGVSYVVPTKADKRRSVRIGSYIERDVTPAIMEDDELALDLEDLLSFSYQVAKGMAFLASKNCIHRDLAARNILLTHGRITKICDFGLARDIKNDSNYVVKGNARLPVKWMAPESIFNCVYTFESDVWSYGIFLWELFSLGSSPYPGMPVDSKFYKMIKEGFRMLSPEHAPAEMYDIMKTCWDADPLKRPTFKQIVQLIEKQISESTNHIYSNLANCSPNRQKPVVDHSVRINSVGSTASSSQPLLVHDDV
Sequence of KIT(D816V) (P10721 26-976 D816V): as the sequence (P10721 26-976) above, with D791V counted along it
Sequence of JAK3 (P52333 whole entry): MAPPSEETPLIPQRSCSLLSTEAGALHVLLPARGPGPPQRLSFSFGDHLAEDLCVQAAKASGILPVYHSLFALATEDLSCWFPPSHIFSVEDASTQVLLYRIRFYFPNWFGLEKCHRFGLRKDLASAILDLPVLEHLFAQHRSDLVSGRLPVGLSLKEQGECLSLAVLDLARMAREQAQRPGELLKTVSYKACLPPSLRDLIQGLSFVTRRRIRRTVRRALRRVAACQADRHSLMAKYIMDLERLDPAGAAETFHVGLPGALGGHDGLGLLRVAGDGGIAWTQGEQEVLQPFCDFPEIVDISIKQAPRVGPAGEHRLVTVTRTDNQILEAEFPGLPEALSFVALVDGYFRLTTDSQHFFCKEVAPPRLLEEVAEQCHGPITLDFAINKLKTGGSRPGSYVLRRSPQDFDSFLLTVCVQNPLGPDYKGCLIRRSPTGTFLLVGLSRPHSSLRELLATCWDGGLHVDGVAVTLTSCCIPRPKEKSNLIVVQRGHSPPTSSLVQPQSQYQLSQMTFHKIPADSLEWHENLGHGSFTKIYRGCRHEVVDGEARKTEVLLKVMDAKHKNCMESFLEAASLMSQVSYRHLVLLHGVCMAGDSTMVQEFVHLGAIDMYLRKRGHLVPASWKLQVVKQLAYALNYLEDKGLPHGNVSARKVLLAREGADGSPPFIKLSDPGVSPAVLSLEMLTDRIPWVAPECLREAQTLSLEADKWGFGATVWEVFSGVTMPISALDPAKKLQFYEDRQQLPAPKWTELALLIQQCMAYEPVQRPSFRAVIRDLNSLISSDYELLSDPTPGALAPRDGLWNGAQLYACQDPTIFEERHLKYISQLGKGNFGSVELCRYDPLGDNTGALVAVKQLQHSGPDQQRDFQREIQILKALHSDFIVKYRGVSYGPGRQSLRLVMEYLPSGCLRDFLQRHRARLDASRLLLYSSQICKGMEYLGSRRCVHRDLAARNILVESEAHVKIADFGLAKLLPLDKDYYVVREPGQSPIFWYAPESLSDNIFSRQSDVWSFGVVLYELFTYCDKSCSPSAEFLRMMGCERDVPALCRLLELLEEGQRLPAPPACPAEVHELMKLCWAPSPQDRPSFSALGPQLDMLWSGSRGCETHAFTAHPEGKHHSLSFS
Sequence of JNK2 (P45984 whole entry): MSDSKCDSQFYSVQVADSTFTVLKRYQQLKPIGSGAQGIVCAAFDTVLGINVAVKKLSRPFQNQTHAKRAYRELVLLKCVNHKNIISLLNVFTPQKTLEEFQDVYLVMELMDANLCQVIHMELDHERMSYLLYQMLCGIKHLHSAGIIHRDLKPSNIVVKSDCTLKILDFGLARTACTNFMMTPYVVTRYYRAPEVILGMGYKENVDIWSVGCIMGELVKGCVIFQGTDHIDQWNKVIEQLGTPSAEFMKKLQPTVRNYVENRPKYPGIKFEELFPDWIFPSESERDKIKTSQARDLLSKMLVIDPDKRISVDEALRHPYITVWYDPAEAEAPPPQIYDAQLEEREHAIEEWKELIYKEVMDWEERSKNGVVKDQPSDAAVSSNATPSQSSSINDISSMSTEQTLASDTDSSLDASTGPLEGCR
Sequence of SRC (P12931 whole entry): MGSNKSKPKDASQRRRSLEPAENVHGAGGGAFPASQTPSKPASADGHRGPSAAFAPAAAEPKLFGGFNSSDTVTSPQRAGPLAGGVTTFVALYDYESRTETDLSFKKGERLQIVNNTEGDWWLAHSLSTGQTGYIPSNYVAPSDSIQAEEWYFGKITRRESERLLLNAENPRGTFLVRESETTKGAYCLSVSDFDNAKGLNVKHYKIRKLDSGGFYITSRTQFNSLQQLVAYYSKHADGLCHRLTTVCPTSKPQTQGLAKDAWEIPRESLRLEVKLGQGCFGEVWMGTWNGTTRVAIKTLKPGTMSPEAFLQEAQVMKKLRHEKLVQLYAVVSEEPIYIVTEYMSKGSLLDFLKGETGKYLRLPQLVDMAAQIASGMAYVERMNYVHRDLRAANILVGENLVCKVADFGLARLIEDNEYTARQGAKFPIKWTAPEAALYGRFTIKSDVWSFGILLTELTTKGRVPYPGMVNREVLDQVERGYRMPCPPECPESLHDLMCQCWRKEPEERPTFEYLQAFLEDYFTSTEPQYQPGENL

On to `C=C1CCCCCCCCCC(CO)C1=O` (stereo not shown) [EP009, 2-(Hydroxymethyl)-12-methylenecyclododecanone], for which the “Kinase Activity (% of Control)” value on KIT, at JNK2, on KIT(D816V) and on SRC was 100 % of Control throughout. The “effect on HEPG2 cell viability” value with HEPG2 is recorded as “no detectable loss of cell viability”. Besides, the “dose limiting safety in vivo” value in series [1] lay within 200 to 300 mg/kg. Moreover, the IC50 – broadly, the point on the concentration scale where inhibition reaches its midpoint – on JAK3 is 10 to 20 µM.
